SMILES strings stand for the structures. Active and inactive are the calls of the source. The rule behind the calls is not given here.

In series [1] the target is T1, Alpha-2B adrenergic receptor (Homo sapiens, UniProt P18089).
T1 sequence (P18089 whole entry): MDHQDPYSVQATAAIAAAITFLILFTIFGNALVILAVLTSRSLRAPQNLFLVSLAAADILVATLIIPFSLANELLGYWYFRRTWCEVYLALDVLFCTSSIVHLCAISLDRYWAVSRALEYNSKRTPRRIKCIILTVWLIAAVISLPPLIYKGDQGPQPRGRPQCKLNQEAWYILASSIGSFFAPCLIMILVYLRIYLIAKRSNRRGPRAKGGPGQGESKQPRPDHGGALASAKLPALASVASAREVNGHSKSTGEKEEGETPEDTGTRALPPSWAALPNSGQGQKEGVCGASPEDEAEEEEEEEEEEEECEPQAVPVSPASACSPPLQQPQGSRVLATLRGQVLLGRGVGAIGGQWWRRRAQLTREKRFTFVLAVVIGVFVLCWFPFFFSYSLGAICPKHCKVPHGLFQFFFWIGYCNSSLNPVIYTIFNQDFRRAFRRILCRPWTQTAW
Kind of series: Binding affinity to alpha2B adrenergic receptor (unknown origin) by radioligand displacement assay.

In series [2] the target is 5-hydroxytryptamine receptor 7 (Homo sapiens, UniProt P34969). Kind of series: Binding affinity to 5HT7A receptor (unknown origin) by radioligand displacement assay.
Chain of 5-hydroxytryptamine receptor 7 (P34969 whole entry): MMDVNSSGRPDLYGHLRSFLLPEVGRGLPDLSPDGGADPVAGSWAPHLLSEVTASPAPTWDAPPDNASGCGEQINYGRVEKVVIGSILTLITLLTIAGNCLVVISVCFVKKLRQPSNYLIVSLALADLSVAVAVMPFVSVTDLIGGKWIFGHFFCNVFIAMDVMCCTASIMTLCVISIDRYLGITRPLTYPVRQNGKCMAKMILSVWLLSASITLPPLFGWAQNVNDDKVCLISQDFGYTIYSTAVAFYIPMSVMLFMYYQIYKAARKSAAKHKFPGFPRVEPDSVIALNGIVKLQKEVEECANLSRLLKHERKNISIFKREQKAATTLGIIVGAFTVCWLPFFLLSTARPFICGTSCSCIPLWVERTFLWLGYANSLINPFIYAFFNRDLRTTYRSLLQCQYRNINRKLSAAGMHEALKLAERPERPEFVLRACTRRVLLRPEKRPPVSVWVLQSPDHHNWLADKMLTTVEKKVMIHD
The nature of series [3]: Binding affinity to Sigma2 opioid receptor (unknown origin) by radioligand displacement assay. More on the design: species or system Homo sapiens.
For series [4], the target named is 5-hydroxytryptamine receptor 5A (Homo sapiens, UniProt P47898). Description: Binding affinity to 5HT5A receptor (unknown origin) by radioligand displacement assay.
Chain of 5-hydroxytryptamine receptor 5A (P47898 whole entry): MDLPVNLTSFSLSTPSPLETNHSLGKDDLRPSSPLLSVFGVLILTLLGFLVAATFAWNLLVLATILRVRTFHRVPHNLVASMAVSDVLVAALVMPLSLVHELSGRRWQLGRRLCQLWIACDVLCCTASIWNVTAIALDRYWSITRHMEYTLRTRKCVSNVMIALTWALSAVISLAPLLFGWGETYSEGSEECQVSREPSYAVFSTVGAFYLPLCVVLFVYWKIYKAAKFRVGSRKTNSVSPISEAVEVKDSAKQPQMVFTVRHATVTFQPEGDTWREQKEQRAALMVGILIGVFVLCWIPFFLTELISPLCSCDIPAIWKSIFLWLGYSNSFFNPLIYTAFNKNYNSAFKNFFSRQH
Series [5] deals with T2, Voltage-gated inwardly rectifying potassium channel KCNH2 (Homo sapiens, UniProt Q12809). Description: Binding affinity to hERG by radioligand displacement assay. Type of series: toxicity.
T2 sequence (Q12809 whole entry): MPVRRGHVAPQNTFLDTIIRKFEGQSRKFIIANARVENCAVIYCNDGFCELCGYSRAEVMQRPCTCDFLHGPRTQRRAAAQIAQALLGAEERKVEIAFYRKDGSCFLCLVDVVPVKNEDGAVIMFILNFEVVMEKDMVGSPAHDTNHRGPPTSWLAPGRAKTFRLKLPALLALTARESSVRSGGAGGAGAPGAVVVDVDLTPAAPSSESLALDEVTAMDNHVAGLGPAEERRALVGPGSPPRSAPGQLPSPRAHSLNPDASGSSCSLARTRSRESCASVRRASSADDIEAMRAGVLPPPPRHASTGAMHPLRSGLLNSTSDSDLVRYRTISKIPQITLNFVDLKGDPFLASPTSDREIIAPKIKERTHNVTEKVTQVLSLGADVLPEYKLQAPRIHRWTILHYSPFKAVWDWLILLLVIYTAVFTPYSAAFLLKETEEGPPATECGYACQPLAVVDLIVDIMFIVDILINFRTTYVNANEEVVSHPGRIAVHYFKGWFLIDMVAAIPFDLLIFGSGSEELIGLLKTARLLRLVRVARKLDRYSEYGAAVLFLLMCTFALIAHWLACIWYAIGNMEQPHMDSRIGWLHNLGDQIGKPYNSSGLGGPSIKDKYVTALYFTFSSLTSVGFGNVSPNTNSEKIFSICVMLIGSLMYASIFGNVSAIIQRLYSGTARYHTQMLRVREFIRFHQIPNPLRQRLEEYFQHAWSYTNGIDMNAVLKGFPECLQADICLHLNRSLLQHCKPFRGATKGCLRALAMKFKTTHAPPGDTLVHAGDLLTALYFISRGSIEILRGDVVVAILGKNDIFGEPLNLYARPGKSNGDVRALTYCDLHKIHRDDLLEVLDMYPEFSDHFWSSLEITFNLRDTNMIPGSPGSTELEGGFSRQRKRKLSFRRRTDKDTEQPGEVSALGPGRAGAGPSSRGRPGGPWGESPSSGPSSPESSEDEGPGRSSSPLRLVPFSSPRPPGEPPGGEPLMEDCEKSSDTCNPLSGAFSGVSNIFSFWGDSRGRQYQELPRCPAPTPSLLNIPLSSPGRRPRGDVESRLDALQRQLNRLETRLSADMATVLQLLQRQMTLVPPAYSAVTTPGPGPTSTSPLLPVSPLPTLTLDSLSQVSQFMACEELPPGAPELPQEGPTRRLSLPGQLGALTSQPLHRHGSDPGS
The target of series [6] is T3, 5-hydroxytryptamine receptor 3A (Homo sapiens, UniProt P46098).
T3 sequence (P46098 whole entry): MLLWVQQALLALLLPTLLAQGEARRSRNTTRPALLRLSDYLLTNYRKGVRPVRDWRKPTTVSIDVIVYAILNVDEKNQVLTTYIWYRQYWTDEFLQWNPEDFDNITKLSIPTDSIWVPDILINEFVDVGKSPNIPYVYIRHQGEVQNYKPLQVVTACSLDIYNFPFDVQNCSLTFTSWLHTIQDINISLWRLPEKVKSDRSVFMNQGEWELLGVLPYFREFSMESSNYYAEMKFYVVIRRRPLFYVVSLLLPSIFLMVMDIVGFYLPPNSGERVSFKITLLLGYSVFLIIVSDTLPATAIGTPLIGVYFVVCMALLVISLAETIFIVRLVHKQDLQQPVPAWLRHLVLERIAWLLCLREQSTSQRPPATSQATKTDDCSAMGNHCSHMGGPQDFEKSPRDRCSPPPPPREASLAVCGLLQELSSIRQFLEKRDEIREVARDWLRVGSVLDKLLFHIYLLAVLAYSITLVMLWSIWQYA
Kind of series: Binding affinity to 5HT3 receptor (unknown origin) by radioligand displacement assay.

For series [7], the target named is T4, Alpha-2A adrenergic receptor (Homo sapiens, UniProt P08913).
T4 sequence (P08913 whole entry): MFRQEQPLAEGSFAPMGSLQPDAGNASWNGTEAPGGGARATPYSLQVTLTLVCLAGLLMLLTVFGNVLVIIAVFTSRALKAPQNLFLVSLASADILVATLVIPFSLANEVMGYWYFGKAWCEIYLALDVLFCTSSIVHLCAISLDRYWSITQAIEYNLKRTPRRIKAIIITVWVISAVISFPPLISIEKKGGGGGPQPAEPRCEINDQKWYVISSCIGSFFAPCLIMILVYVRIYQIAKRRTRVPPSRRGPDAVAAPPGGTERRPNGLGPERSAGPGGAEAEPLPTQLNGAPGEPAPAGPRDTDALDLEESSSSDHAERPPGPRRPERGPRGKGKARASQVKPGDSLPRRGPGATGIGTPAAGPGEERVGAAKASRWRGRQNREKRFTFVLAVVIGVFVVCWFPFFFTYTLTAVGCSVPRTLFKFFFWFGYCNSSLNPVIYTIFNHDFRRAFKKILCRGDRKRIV
Kind of series: Binding affinity to alpha2A adrenergic receptor (unknown origin) by radioligand displacement assay.

Series [8] addresses T5, Alpha-1A adrenergic receptor (Homo sapiens, UniProt P35348).
T5 sequence (P35348 whole entry): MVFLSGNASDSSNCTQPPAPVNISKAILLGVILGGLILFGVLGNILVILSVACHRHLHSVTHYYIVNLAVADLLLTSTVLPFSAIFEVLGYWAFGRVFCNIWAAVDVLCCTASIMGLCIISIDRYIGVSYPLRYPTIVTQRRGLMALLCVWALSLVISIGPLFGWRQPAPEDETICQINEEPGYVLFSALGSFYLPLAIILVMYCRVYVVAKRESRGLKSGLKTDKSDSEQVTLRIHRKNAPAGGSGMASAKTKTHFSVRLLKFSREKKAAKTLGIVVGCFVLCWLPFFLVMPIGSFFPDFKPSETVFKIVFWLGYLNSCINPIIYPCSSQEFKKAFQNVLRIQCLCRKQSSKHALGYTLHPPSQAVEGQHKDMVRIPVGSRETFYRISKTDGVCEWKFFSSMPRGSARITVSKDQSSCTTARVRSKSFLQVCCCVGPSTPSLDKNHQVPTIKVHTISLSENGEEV
Description: Binding affinity to alpha1A adrenergic receptor (unknown origin) by radioligand displacement assay.

The nature of series [9]: Binding affinity to alpha7 […] receptor (unknown origin) by radioligand displacement assay. Further details: species or system Homo sapiens.
Series [10] has as its target T6, Alpha-2C adrenergic receptor (Homo sapiens, UniProt P18825).
T6 sequence (P18825 whole entry): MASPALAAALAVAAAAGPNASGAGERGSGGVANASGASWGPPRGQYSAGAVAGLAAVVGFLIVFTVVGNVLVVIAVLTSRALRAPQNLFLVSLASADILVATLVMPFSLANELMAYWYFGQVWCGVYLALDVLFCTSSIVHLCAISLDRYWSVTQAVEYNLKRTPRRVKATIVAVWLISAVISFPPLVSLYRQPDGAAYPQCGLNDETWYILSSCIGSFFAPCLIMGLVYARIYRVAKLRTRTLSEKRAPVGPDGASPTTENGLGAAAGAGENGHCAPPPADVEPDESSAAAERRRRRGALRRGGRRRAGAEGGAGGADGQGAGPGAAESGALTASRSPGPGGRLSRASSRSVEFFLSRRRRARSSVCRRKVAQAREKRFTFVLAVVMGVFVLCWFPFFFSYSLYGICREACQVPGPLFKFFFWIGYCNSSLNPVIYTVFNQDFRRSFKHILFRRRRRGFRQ
Kind of series: Binding affinity to alpha2C adrenergic receptor (unknown origin) by radioligand displacement assay.

Series [11] concerns the target T7, Alpha-1B adrenergic receptor (Homo sapiens, UniProt P35368).
T7 sequence (P35368 whole entry): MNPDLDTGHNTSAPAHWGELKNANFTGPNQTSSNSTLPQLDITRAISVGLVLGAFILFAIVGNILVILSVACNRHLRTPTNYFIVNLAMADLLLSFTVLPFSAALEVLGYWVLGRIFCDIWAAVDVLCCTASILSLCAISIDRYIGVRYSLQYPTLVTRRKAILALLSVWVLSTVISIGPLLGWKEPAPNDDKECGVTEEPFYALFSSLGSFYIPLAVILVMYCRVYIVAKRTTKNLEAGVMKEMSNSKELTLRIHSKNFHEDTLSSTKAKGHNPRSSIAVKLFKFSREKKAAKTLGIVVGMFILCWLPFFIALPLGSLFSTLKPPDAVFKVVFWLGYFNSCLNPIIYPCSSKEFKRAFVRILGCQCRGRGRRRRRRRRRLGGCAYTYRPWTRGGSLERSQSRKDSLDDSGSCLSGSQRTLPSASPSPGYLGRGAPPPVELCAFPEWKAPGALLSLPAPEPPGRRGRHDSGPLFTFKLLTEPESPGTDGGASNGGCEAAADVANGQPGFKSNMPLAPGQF
Kind of series: Binding affinity to alpha1B adrenergic receptor (unknown origin) by radioligand displacement assay.

For series [12], the target named is T8, Kappa-type opioid receptor (Homo sapiens, UniProt P41145). Description: Agonist activity at kappa opioid receptor (unknown origin) assessed as beta arrestin2 recruitment at 3 uM by PRESTO-Tango assay. Type of series: functional. To be noted: filed as agonist.
T8 sequence (P41145 whole entry): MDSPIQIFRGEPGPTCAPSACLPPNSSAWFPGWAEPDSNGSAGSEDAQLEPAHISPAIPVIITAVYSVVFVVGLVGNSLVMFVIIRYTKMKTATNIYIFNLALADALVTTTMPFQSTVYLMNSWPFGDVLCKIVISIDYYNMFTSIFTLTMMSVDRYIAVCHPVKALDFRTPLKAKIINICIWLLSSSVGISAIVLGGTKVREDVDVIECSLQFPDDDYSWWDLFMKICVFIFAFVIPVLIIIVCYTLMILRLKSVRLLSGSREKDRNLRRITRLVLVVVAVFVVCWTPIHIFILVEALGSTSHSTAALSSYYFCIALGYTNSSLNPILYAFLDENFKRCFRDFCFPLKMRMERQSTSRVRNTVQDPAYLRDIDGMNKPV
Series [13] deals with T9, Mu-type opioid receptor (Homo sapiens, UniProt P35372).
T9 sequence (P35372 whole entry): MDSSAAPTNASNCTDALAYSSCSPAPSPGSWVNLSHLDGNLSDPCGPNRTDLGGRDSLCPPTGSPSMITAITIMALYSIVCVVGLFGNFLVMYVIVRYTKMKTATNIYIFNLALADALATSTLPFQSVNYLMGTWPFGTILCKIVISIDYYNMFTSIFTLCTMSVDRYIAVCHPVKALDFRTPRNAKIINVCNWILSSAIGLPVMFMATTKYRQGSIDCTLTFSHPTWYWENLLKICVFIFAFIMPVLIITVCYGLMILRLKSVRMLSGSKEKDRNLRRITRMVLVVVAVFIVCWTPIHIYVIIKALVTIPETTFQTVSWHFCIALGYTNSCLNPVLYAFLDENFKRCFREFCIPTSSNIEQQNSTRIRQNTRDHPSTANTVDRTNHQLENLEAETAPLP
Description: Binding affinity to mu opioid receptor (unknown origin) by radioligand displacement assay
Series [14] has as its target T8, Kappa-type opioid receptor. Description: Binding affinity to kappa opioid receptor (unknown origin) by radioligand displacement assay.
Series [15] has as its target T8, Kappa-type opioid receptor. Description: Agonist activity at human kappa opioid receptor expressed in CHO-K1 cells assessed as inhibition of forskolin-stimulated cAMP accumulation by HitHunter assay based luminescence analysis relative to control. The class given is functional, cell-based. To be noted: filed as agonist.
Series [16] concerns the target T2, Voltage-gated inwardly rectifying potassium channel KCNH2. Description: Binding affinity to hERG at 10 uM by radioligand displacement assay. The class given is toxicity.
Series [17] deals with T8, Kappa-type opioid receptor. Kind of series: Agonist activity at human kappa opioid receptor expressed in CHO-K1 cells assessed as inhibition of forskolin-stimulated cAMP accumulation by HitHunter assay based luminescence analysis. The class given is functional, cell-based.
The species named for the next series is Homo sapiens. Kind of series: Selectivity index, ratio of EC50 for agonist activity at human mu opioid receptor expressed in CHO-K1 cells to EC50 for agonist activity at human kappa opioid receptor expressed in CHO-K1 cells. The class given is cell-based.
Series [18] has as its target T9, Mu-type opioid receptor. Description: Agonist activity at human mu opioid receptor expressed in CHO-K1 cells assessed as inhibition of forskolin-stimulated cAMP accumulation by HitHunter assay based luminescence analysis relative to control. Type of series: functional, cell-based.
The target in series [19] is T9, Mu-type opioid receptor. Description: Agonist activity at human mu opioid receptor expressed in CHO-K1 cells assessed as inhibition of forskolin-stimulated cAMP accumulation by HitHunter assay based luminescence analysis. The class given is functional, cell-based.
Series [20] has as its target Delta-type opioid receptor (Homo sapiens) (UniProt P41143). Description: Agonist activity at human delta opioid receptor expressed in CHO-K1 cells assessed as inhibition of forskolin-stimulated cAMP accumulation at <1 uM by HitHunter assay based luminescence analysis. Type of series: functional, cell-based.
Series [21] addresses T8, Kappa-type opioid receptor. Kind of series: Agonist activity at kappa opioid receptor (unknown origin) expressed in human U2OS cells assessed as beta arrestin2 recruitment at <10 uM incubated for 30 mins by PathHunter assay. Type of series: functional, cell-based. To be noted: filed as agonist.

Chain of Delta-type opioid receptor (Homo sapiens) (P41143 whole entry): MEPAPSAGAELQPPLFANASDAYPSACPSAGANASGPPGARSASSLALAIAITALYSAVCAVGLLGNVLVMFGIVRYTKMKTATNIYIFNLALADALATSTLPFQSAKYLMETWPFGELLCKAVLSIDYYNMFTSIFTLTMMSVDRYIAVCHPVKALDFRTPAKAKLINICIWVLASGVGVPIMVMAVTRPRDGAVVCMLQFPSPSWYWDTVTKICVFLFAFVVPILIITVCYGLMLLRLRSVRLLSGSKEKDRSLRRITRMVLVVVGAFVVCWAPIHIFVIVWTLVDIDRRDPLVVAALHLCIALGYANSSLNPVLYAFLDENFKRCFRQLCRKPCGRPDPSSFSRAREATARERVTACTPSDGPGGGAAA

For the compound `C/C=C1/CN2CC[C@]34C(=C(C(=O)OC)[C@H]1C[C@H]23)Nc1ccc(Br)cc14`, the inhibition constant (Ki) in series [1] worked out at 1.25 µM; in series [2], 1.52 µM; in [3], 2.62 µM; in [4], 0.721 µM; in [5] it was 1.34 µM; in series [6], 0.21 µM. Further, the Ki is greater than 10 µM in series [7]; 1 µM in [8]; 7 µM in series [9]; 2.91 µM in [10]; 2.88 µM in series [11].

In the case of `C/C=C1/CN2CC[C@]34C(=C(C(=O)OC)[C@H]1C[C@H]23)Nc1ccccc14` [AKUAMMICINE], the Ki is 1.21 µM in series [1]; 1.41 µM in series [2]; 3.73 µM at Mu-type opioid receptor [13]; 0.166 µM in [14]; 2.93 µM in series [4]; 5.49 µM in series [6]. For the same compound, in series [10], affinity was put at a Ki of 4.79 µM. Besides, in series [12], the outcome was Active. In addition, the Emax in series [15] is 91%. This compound also had an Activity in series [16] of less than 50%. In [17], the 50% effective concentration (EC50) came to 1.2 µM.

Take `C/C=C1/CN2CC[C@]34C(=C(C(=O)OC)[C@H]1C[C@H]23)Nc1ccc([N+](=O)[O-])cc14`: the Ratio EC50 in the series listed under Homo sapiens is 25. Besides, the values for the maximum response (Emax) (in [15]; at Mu-type opioid receptor [18]) were 96% and less than 10%, respectively. Further, the results for the half-maximal effective concentration (EC50) (on Mu-type opioid receptor [19]; in [17]) were 4 µM and 0.16 µM, respectively. The outcome in [20] was inactive.

As for `C/C=C1/CN2CC[C@]34C(=C(C(=O)OC)[C@H]1C[C@H]23)Nc1ccc(-c2ccoc2)cc14`, the Activity entry in series [21] is on record as “Active; Less Efficacious Than U50488”. The Emax is 102% in series [15] and 99% on Mu-type opioid receptor [18] (filed as agonist). Moreover, the outcome in [20] was inactive.

Values taken from ChEMBL document CHEMBL6074668 (J Med Chem, 2024).
